Measurements reported in publication PMC6906394, “Radiomodifying action, Pharmacokinetic and Biodistribution of Ethyl 3, 4, 5-trihydroxybenzoate-Implication in development of radiomitigator” (Scientific Reports, 2019).
“Also recorded” adds a separate entry of the source. Read-outs that look alike come from different tables or passages of the source.

How the values were obtained:
[1] = Biodistribution of GAE in liver, kidney, heart, spleen and brain after oral administration; format: in vivo, mice
Description: The Biodistribution in mice at 15 min, 30 min, 1 h, 2 h, 4 h, 8 h and 24 h after GAE administration are presented in (Fig. 2A,B). […] Moreover; no GAE peak was identified in untreated control and irradiated animals. In the GAE treated group the concentration of GAE is highest in the liver 3383.1 ± 137.79 ng/g at 1 h, 529.13 ± 102.8 ng/g in the kidney at 2 h and 283.1 ± 20.60 ng/g in the brain at 1 h after GAE administration. […] After 2 h of GAE administration its concentration decreased GAE was found in heart, spleen, and kidney up to 4 h, whereas in brain it found in low concentration up to 2 h.
(§1) Black C57BL/6 male mice weighing 28–30 g were maintained at the Institutional Animal Experimental Facility. Animals were fed according to standard chow diet having free access to food and water ad libitum. The environmental condition was maintained at room temperature (22 ± 2 °C), relative humidity (45–60%) and 12 h dark/light cycle controlled facility. In this study, mice were randomly assigned to four different groups (n = 21) i.e untreated control (UC), GAE-treated (GAE), Radiation + GAE (R + GAE), Radiation group (R). Mice fasted overnight with free access to water before being dosed. Isolated GAE from leaves was dissolved with distilled water and ethanol in (7:3 v/v) and administered orally at a dose of 200 mg/kg body weight to GAE-treated and R + GAE treated groups only. The experiment was carried out in accordance to regulation and guideline of the, Committee for the purpose of control and supervision of Experiments on animals (CPCSEA), and study was approved by Institutional Animal Experimental Committee (IAEC), Institute of Nuclear Medicine & Allied Science, Delhi, India.
(§2) Group I untreated control (UC), Group II GAE-treated (GAE), Group III Radiation + GAE (R + GAE) and Group IV Radiation (R) exposed. The GAE was administered orally 15 min post irradiation. The whole-body radiation (5 Gy) was carried out using Bhabahtron II, Telecobalt machine, Panacea medical technology, Bangalore. The mice exposed at a dose rate of 0.961 Gy/min at field 35 × 35 cm^2 and the distance maintained from the source was 80 cm.
(§3) Blood and tissues samples of mice were collected at 15 min, 30 min, 1 h, 2 h, 4 h, 8 h and 24 h after GAE administration (3mice per time). Blood was obtained from retro orbital plexus of mice and collected in heparinized eppendorf tubes, followed by centrifugation at 2500 g for 15 min. The resulting plasma layer was separated and stored in tubes at −20 °C for further analysis. Tissue samples (brain, heart, liver, kidney, and spleen) were weighed and put into the normal saline solution to remove the blood by blotting on filter paper and were minced and homogenized with physiological saline solution (1:2 w/v) thoroughly in an ice bath. The homogenates were stored at −80 °C until the analysis.
For the extraction from tissue, each aliquot (300 µL) of homogenate (liver, kidney, brain, heart & spleen) was spiked with 20 µL of the IS working solution (100 ng/mL) during analysis; homogenate was dispensed in a standing vial containing 400 µL ACN to precipitate proteins. The biological samples were swirled for 3 min and were centrifuged at 12000 rpm for 10 min at 4 °C. The obtained supernatant was tubed and dried under a stream of nitrogen at 40 °C, the sample was reconstituted with mobile phase, then and 20 µL was injected into the HPLC system.
GAE was separated on the high-performance liquid chromatography (HPLC), SPD-10A consisting of binary HPLC pump, ultraviolet detector, and a Rheodyne manual injector equipped with a 20 µl loop (Shimadzu, Japan). Separation was achieved on Kinetex Biphenyl RP 100 Å column (2.6 µm, 150 × 4.6 mm) (Phenomenex, Torrance) installed with phenyl cartridges (Phenomenex, Torrance). The system was controlled using class VP software (Shimadzu, Japan). […]

[2] = Plasma pharmacokinetics of GAE after single oral administration (HPLC, non-compartmental); format: in vivo, mice; conditions: 200 mg/kg b.wt oral; for Cmax / AUC(0-t) / Tmax / half-life / AUC: 200 mg/kg; for Kel: in 1/min; for AUC: read-out: AUC0-α (converted)
Description: The developed method was successfully employed to determine GAE concentration in mouse plasma and tissue samples after single oral administration of GAE at a single dose (200 mg/kg body weight) in GAE and Radiation + GAE (R + GAE) treated group. […] Pharmacokinetic parameter analysis is presented in (Table 2, Table 3).
as §1, §2, §3
Aliquot of plasma sample (100 µL) dispensed in standing vial deproteinized with ACN (200 µL) containing the IS (100 ng/mL) and centrifuged at 2500 g for 15 min at 4 °C. The supernatant was collected transferred to a clean glass tube, reconstituted with 200 µL mobile phase vortexed mixed for 2 min and centrifuged at 2500 g for 5 min. Following this, a 20 µL aliquot of supernatant was injected into the HPLC system for analysis.
GAE was separated on the high-performance liquid chromatography (HPLC), SPD-10A consisting of binary HPLC pump, ultraviolet detector, and a Rheodyne manual injector equipped with a 20 µl loop (Shimadzu, Japan). Separation was achieved on Kinetex Biphenyl RP 100 Å column (2.6 µm, 150 × 4.6 mm) (Phenomenex, Torrance) installed with phenyl cartridges (Phenomenex, Torrance). The system was controlled using class VP software (Shimadzu, Japan). The chromatographic separation of GAE was in approximately within 10 min, at room temperature by using the isocratic mobile phase mixture of ACN and 1%OPA (30:70, v/v) with pH maintained at 3.3. 20 µL of the samples were injected at a flow rate of 0.5 mL/min and the wavelength 270 nm was used for detection. […]

[3] = R + GAE treated group (5 Gy), 200 mg/kg b.wt oral
[4] = after GAE administration, 200 mg/kg b.wt oral
[5] = R + GAE group (60Co-γ 5 Gy, GAE 15 min post irradiation)
[6] = male, C57BL/6, mouse, po, GAE treated group
[7] = male, C57BL/6, mouse, po, R + GAE group (60Co-γ 5 Gy, GAE 15 min post irradiation)

Question: Which “crossing of the blood-brain barrier” value ([1]; GAE detected in brain in both GAE and R + GAE treated groups) does the source give for `CCOC(=O)c1cc(O)c(O)c(O)c1` [GAE, Ethyl 3,4,5-trihydroxybenzoate] here?
Answer: The value was “crosses the blood-brain barrier; also recorded: could cross the blood-brain barrier”.

Question: And the “concentration of GAE (liver, tissue implied by context)” value [1, 3]?
Answer: The value was 1928.5 ± 39.63 ng/g.

Question: And the “kidney concentration of GAE” value [1, 3]?
Answer: The value was 307.77 ± 7.80 ng/g.

Question: And the “time up to which GAE was found in brain (low concentration)” value [1, 4]?
Answer: The value was “up to 2 h”.

Question: What about the “time up to which GAE was found in heart, spleen and kidney” value [1, 4] of the same compound?
Answer: The value was “up to 4 h”.

Question: What about the “tissues with the highest concentration” value ([1]; biodistribution, 200 mg/kg b.wt oral) of the same compound?
Answer: The value was “liver and kidney”.

Question: What about the “peak GAE concentration in liver relative to other tissues” value ([1]; both GAE treated and R + GAE treated groups) of the same compound?
Answer: Its value is “two fold higher”.

Question: And the concentration at 1 h ([1]; male, C57BL/6, mouse, brain, po, 200 mg/kg, GAE treated group, 200 mg/kg b.wt oral, read-out: concentration of GAE in the brain)?
Answer: Its concentration at 1 h is 283 ± 20.6 ng/g.

Question: And the concentration at 1 h ([1]; male, C57BL/6, mouse, heart, po, 200 mg/kg, GAE treated animals, 200 mg/kg b.wt oral, read-out: GAE concentration in the heart)?
Answer: Its concentration at 1 h is 216 ng/g.

Question: What about the concentration at 1 h ([1]; male, C57BL/6, mouse, heart, po, 200 mg/kg, R + GAE group (5 Gy), 200 mg/kg b.wt oral, read-out: GAE concentration in the heart) of the same compound?
Answer: The concentration at 1 h was 506 ± 39.4 ng/g.

Question: What about the concentration at 2 h ([1]; male, C57BL/6, mouse, kidney, po, 200 mg/kg, GAE treated group, 2 h, 200 mg/kg b.wt oral) of the same compound?
Answer: The concentration at 2 h was 529 ± 103 ng/g.

Question: What about the concentration at 1 h ([1]; male, C57BL/6, mouse, liver, po, 200 mg/kg, GAE treated group, 200 mg/kg b.wt oral, read-out: concentration of GAE in the liver) of the same compound?
Answer: Its concentration at 1 h is 3380 ± 138 ng/g.

Question: And the concentration at 1 h ([1]; male, C57BL/6, mouse, spleen, po, 200 mg/kg, GAE treated animals, 200 mg/kg b.wt oral, read-out: GAE concentration in the spleen)?
Answer: Its concentration at 1 h is 484 ng/g.

Question: What about the concentration at 1 h ([1]; male, C57BL/6, mouse, spleen, po, 200 mg/kg, R + GAE group (5 Gy), 200 mg/kg b.wt oral, read-out: GAE concentration in the spleen) of the same compound?
Answer: Its concentration at 1 h is 522 ± 73.2 ng/g.

Question: And the Clearance ([2]; GAE treated group)?
Answer: The Clearance was 0.017 ± 0.0005 mL/min.

Question: And the Cmax ([2]; GAE treated group)?
Answer: The Cmax was 4390.85 ± 285.20 ng/mL.

Question: What about the Kel ([2]; GAE treated group) of the same compound?
Answer: The Kel was 0.026 ± 0.003.

Question: And the Clearance [2, 5]?
Answer: Its Clearance is 0.07 ± 0.01 mL/min.

Question: What about the Kel [2, 5] of the same compound?
Answer: Its Kel is 0.025 ± 0.02.

Question: And the AUC(0-t) [2, 6]?
Answer: The AUC(0-t) was 2920 ng·h/mL.

Question: What about the Tmax [2, 6] of the same compound?
Answer: The Tmax was roughly 15 min.

Question: What about the half-life [2, 6] of the same compound?
Answer: Its half-life is 26.5 ± 3.2 min.

Question: And the AUC [2, 6]?
Answer: Its AUC is 2930 ng·h/mL.

Question: What about the Cmax ([2]; male, C57BL/6, mouse, po, GAE treated group, read-out: Cmax) of the same compound?
Answer: Its Cmax is 4390 ± 285 ng/mL.

Question: What about the AUC(0-t) [2, 7] of the same compound?
Answer: Its AUC(0-t) is 1070 ng·h/mL.

Question: And the Tmax [2, 7]?
Answer: The Tmax was roughly 15 min.

Question: And the half-life [2, 7]?
Answer: Its half-life is 22.4 ± 3.6 min.

Question: What about the AUC [2, 7] of the same compound?
Answer: Its AUC is 1070 ng·h/mL.

Question: And the Cmax ([2]; male, C57BL/6, mouse, po, R + GAE group (60Co-γ 5 Gy, GAE 15 min post irradiation), read-out: Cmax)?
Answer: The Cmax was 3390 ± 78.1 ng/mL.
